Data: ChEMBL document CHEMBL3813678, “Synthesis and anticancer activity of novel 4-morpholino-7,8-dihydro-5H-thiopyrano[4,3-d]pyrimidine derivatives bearing chromone moiety” (Bioorg Med Chem, 2016)
pIC50: −log10 of the molar value.

Columns and labels:
[1] = system: A549; test: Cytotoxicity against human A549 cells after 72 hrs by MTT assay; type: functional, cell-based; conditions: for pIC50: Homo sapiens, A549, 72 h, read-out: IC50; for IC50: a549
[2] = Cytotoxicity against human PC3 cells after 72 hrs by MTT assay; type: functional, cell-based, PC-3; conditions: for pIC50: Homo sapiens, PC-3, 72 h, read-out: IC50; for IC50: pc-3
[3] = system: MCF7; test: Cytotoxicity against human MCF7 cells after 72 hrs by MTT assay; type: functional, cell-based; conditions: for pIC50: Homo sapiens, MCF7, 72 h, read-out: IC50; for IC50: mcf7
[4] = system: HeLa; test: Cytotoxicity against human HeLa cells after 72 hrs by MTT assay; type: functional, cell-based; conditions: for pIC50: Homo sapiens, HeLa, 72 h, read-out: IC50; for IC50: hela
[5] = system: HepG2; test: Cytotoxicity against human HepG2 cells after 72 hrs by MTT assay; type: functional, cell-based; conditions: for pIC50: Homo sapiens, HepG2, 72 h, read-out: IC50; for IC50: hepg2
[6] = molecular target: T1, Serine/threonine-protein kinase mTOR (Homo sapiens, UniProt P42345); test: Inhibition of mTOR (unknown origin) using ULight4E-BP1 peptide as substrate incubated for 1 hr by TR-FRET assay
[7] = molecular target: T2, Phosphatidylinositol 4,5-bisphosphate 3-kinase catalytic subunit alpha isoform (Homo sapiens, UniProt P42336); test: Inhibition of PI3Kalpha (unknown origin) using PI substrate incubated for 60 mins by kinase-glo luminescence assay
[8] = molecular target: T2, Phosphatidylinositol 4,5-bisphosphate 3-kinase catalytic subunit alpha isoform; test: Inhibition of PI3Kalpha (unknown origin) at 10 uM using PI substrate incubated for 60 mins by kinase-glo luminescence assay
[9] = molecular target: T1, Serine/threonine-protein kinase mTOR; test: Inhibition of mTOR (unknown origin) at 10 uM using ULight4E-BP1 peptide as substrate incubated for 1 hr by TR-FRET assay

T2 sequence (P42336 whole entry, canonical isoform): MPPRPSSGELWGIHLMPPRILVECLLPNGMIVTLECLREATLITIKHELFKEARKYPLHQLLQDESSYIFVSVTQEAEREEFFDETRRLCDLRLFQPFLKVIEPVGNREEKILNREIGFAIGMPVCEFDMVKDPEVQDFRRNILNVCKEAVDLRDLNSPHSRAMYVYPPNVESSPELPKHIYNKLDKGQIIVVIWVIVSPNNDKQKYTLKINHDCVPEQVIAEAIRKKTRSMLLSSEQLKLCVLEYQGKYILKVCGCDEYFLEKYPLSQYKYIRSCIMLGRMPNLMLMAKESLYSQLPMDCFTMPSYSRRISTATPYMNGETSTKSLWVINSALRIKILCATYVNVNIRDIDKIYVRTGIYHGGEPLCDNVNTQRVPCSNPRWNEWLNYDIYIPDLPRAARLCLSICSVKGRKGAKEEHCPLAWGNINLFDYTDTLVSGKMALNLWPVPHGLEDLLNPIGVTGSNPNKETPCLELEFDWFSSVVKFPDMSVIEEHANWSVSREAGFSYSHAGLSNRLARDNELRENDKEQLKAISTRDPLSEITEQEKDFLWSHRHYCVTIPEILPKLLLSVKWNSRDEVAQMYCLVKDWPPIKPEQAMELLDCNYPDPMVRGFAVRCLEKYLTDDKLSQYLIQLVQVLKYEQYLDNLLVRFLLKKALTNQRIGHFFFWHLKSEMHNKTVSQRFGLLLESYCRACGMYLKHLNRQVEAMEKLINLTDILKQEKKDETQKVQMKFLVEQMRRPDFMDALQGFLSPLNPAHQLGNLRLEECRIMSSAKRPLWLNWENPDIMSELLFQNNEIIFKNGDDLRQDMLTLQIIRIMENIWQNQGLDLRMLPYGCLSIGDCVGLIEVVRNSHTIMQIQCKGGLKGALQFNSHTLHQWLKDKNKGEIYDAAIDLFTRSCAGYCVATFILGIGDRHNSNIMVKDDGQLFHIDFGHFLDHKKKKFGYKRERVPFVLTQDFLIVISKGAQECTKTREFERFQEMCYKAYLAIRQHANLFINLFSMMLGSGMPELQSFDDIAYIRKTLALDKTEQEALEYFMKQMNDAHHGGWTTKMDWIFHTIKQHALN

Question: With `CS(=O)(=O)N1CCN(Cc2cc3nc(-c4cccc5[nH]ncc45)nc(N4CCOCC4)c3s2)CC1` [PICTILISIB] as the molecule, how does the pIC50 [1] read?
Answer: Its pIC50 is 5.16.

Question: And the pIC50 [2]?
Answer: Its pIC50 is 6.70.

Question: What about the pIC50 [3] of the same molecule?
Answer: The pIC50 was 7.15.

Question: Which IC50 [1] does the source give for `O=C(O)c1ccc2occ(/C=N/Nc3nc4c(c(N5CCOCC5)n3)CS(=O)(=O)CC4)c(=O)c2c1` here?
Answer: The IC50 was “Not Active”.

Question: And the IC50 [2]?
Answer: The IC50 was “Not Active”.

Question: And the IC50 [3]?
Answer: Its IC50 is “Not Active”.

Question: What does the source list for `CCc1ccc2occ(/C=N/Nc3nc4c(c(N5CCOCC5)n3)CS(=O)(=O)CC4)c(=O)c2c1`?
Answer: pIC50 [1]: 4.58; pIC50 [2]: 4.52; pIC50 [4]: 4.69; pIC50 [3]: 4.54; pIC50 [5]: 4.59

Question: With `CC(C)c1ccc2occ(/C=N/Nc3nc4c(c(N5CCOCC5)n3)CSCC4)c(=O)c2c1` as the molecule, how does the IC50 [6] read?
Answer: Its IC50 is “Not Active”.

Question: And the pIC50 [1]?
Answer: The pIC50 was 5.02.

Question: And the pIC50 [2]?
Answer: Its pIC50 is 4.76.

Question: What about the pIC50 [4] of the same molecule?
Answer: The pIC50 was 4.81.

Question: What about the pIC50 [3] of the same molecule?
Answer: The pIC50 was 4.88.

Question: And the pIC50 [5]?
Answer: The pIC50 was 5.00.

Question: What does the source list for `Cc1ccc2occ(/C=N/Nc3nc4c(c(N5CCOCC5)n3)CS(=O)(=O)CC4)c(=O)c2c1`?
Answer: pIC50 [1]: 4.68; pIC50 [2]: 4.42; pIC50 [4]: 4.72; pIC50 [3]: 4.66; pIC50 [5]: 4.63

Question: With `Cc1ccc2occ(/C=N/Nc3nc4c(c(N5CCOCC5)n3)CSCC4)c(=O)c2c1` as the molecule, how does the pIC50 [1] read?
Answer: Its pIC50 is 4.37.

Question: What about the pIC50 [2] of the same molecule?
Answer: Its pIC50 is less than 4.00.

Question: What about the pIC50 [4] of the same molecule?
Answer: Its pIC50 is 4.80.

Question: What about the pIC50 [3] of the same molecule?
Answer: The pIC50 was 4.44.

Question: What about the IC50 [5] of the same molecule?
Answer: Its IC50 is “Not Active”.

Question: Which results are given for `O=C(O)c1ccc2occ(/C=N/Nc3nc4c(c(N5CCOCC5)n3)CSCC4)c(=O)c2c1`?
Answer: pIC50 ([6]; read-out: IC50): 5.96; pIC50 [1]: 4.98; pIC50 [2]: 4.84; pIC50 [4]: 4.99; pIC50 [3]: 4.93; pIC50 [5]: 5.06; pIC50 ([7]; read-out: IC50): 6.04

Question: Which results are given for `O=c1c(/C=N/Nc2nc3c(c(N4CCOCC4)n2)CS(=O)(=O)CC3)coc2ccc(F)cc12`?
Answer: IC50 [1]: Not Active; IC50 [2]: Not Active; IC50 [3]: Not Active

Question: With `O=c1c(/C=N/Nc2nc3c(c(N4CCOCC4)n2)CSCC3)coc2ccc(Cl)cc12` as the molecule, how does the pIC50 [1] read?
Answer: Its pIC50 is less than 4.00.

Question: And the pIC50 [2]?
Answer: The pIC50 was 4.49.

Question: What about the pIC50 [4] of the same molecule?
Answer: The pIC50 was 4.87.

Question: What about the IC50 [3] of the same molecule?
Answer: The IC50 was “Not Active”.

Question: What about the IC50 [5] of the same molecule?
Answer: The IC50 was “Not Active”.

Question: With `CC(C)c1ccc2occ(/C=N/Nc3nc4c(c(N5CCOCC5)n3)CS(=O)(=O)CC4)c(=O)c2c1` as the molecule, how does the pIC50 [1] read?
Answer: The pIC50 was 4.59.

Question: And the pIC50 [2]?
Answer: The pIC50 was 4.46.

Question: And the pIC50 [4]?
Answer: The pIC50 was 4.58.

Question: And the pIC50 [3]?
Answer: The pIC50 was 4.56.

Question: And the pIC50 [5]?
Answer: Its pIC50 is 4.55.

Question: With `COc1cc(/C=N/Nc2nc3c(c(N4CCOCC4)n2)CSCC3)cc(OC)c1O` as the molecule, how does the pIC50 [1] read?
Answer: The pIC50 was 5.13.

Question: What about the pIC50 [3] of the same molecule?
Answer: Its pIC50 is 5.23.

Question: What about the IC50 [7] of the same molecule?
Answer: Its IC50 is “Not Active”.

Question: What does the source list for `O=c1c(/C=N/Nc2nc3c(c(N4CCOCC4)n2)CSCC3)coc2ccc([N+](=O)[O-])cc12`?
Answer: pIC50 [1]: 4.70; pIC50 [2]: 4.46; inhibition [8]: 16.7%; pIC50 [4]: 4.94; inhibition [9]: 66.4%; pIC50 [3]: 4.67; pIC50 [5]: 4.90

Question: What does the source list for `O=c1c(/C=N/Nc2nc3c(c(N4CCOCC4)n2)CSCC3)coc2ccc(O)cc12`?
Answer: pIC50 [1]: < 4.00; pIC50 [2]: < 4.00; IC50 [4]: Not Active; IC50 [3]: Not Active; IC50 [5]: Not Active

Question: With `CC(C)(C)c1ccc2occ(/C=N/Nc3nc4c(c(N5CCOCC5)n3)CS(=O)(=O)CC4)c(=O)c2c1` as the molecule, how does the pIC50 [1] read?
Answer: Its pIC50 is 4.74.

Question: And the pIC50 [2]?
Answer: The pIC50 was 4.75.

Question: And the inhibition [8]?
Answer: Its inhibition is 13.8%.

Question: And the pIC50 [4]?
Answer: The pIC50 was 4.82.

Question: And the inhibition [9]?
Answer: Its inhibition is 44.7%.

Question: And the pIC50 [3]?
Answer: The pIC50 was 4.75.

Question: What about the pIC50 [5] of the same molecule?
Answer: Its pIC50 is 4.83.

Question: With `CC(C)(C)c1ccc2occ(/C=N/Nc3nc4c(c(N5CCOCC5)n3)CSCC4)c(=O)c2c1` as the molecule, how does the pIC50 [1] read?
Answer: Its pIC50 is 4.94.

Question: What about the pIC50 [2] of the same molecule?
Answer: The pIC50 was 4.82.

Question: What about the inhibition [8] of the same molecule?
Answer: Its inhibition is 24%.

Question: What about the pIC50 [4] of the same molecule?
Answer: Its pIC50 is 6.77.

Question: What about the inhibition [9] of the same molecule?
Answer: Its inhibition is 36.4%.

Question: And the pIC50 [3]?
Answer: Its pIC50 is 5.41.

Question: What about the pIC50 [5] of the same molecule?
Answer: Its pIC50 is 5.74.

Question: Which IC50 [6] does the source give for `CCc1ccc2occ(/C=N/Nc3nc4c(c(N5CCOCC5)n3)CSCC4)c(=O)c2c1` here?
Answer: Its IC50 is “Not Active”.

Question: What about the pIC50 [1] of the same molecule?
Answer: Its pIC50 is 4.68.

Question: What about the pIC50 [2] of the same molecule?
Answer: The pIC50 was 4.62.

Question: And the pIC50 [4]?
Answer: The pIC50 was 5.00.

Question: And the pIC50 [3]?
Answer: The pIC50 was 4.95.

Question: And the pIC50 [5]?
Answer: Its pIC50 is 4.86.

Question: With `O=c1c(/C=N/Nc2nc3c(c(N4CCOCC4)n2)CS(=O)(=O)CC3)coc2ccc(Cl)cc12` as the molecule, how does the pIC50 [1] read?
Answer: The pIC50 was 4.75.

Question: What about the pIC50 [2] of the same molecule?
Answer: Its pIC50 is 4.33.

Question: What about the pIC50 [4] of the same molecule?
Answer: The pIC50 was 4.52.

Question: And the pIC50 [3]?
Answer: The pIC50 was 4.63.

Question: And the pIC50 [5]?
Answer: Its pIC50 is 4.42.

Question: Which results are given for `O=c1c(/C=N/Nc2nc3c(c(N4CCOCC4)n2)CS(=O)(=O)CC3)coc2ccc(Br)cc12`?
Answer: pIC50 [1]: 4.30; pIC50 [2]: 4.19; IC50 [4]: Not Active; pIC50 [3]: 4.22; IC50 [5]: Not Active

Question: For `O=c1c(/C=N/Nc2nc3c(c(N4CCOCC4)n2)CS(=O)(=O)CC3)coc2ccc(O)cc12`, which IC50 [1] is on record?
Answer: The IC50 was “Not Active”.

Question: And the IC50 [2]?
Answer: Its IC50 is “Not Active”.

Question: What about the IC50 [3] of the same molecule?
Answer: The IC50 was “Not Active”.

Question: Which IC50 [1] does the source give for `O=c1c(/C=N/Nc2nc3c(c(N4CCOCC4)n2)CS(=O)(=O)CC3)coc2ccc([N+](=O)[O-])cc12` here?
Answer: The IC50 was “Not Active”.

Question: And the IC50 [2]?
Answer: The IC50 was “Not Active”.

Question: And the IC50 [3]?
Answer: The IC50 was “Not Active”.

Question: With `O=c1c(/C=N/Nc2nc3c(c(N4CCOCC4)n2)CSCC3)coc2ccc(F)cc12` as the molecule, how does the IC50 [6] read?
Answer: Its IC50 is “Not Active”.

Question: And the pIC50 [1]?
Answer: The pIC50 was 5.16.

Question: What about the pIC50 [2] of the same molecule?
Answer: Its pIC50 is 4.08.

Question: What about the pIC50 [4] of the same molecule?
Answer: Its pIC50 is 6.42.

Question: And the pIC50 [3]?
Answer: Its pIC50 is 4.95.

Question: What about the pIC50 [5] of the same molecule?
Answer: Its pIC50 is 6.55.

Question: With `O=c1c(/C=N/Nc2nc3c(c(N4CCOCC4)n2)CSCC3)coc2ccc(Br)cc12` as the molecule, how does the pIC50 [1] read?
Answer: Its pIC50 is less than 4.00.

Question: What about the pIC50 [2] of the same molecule?
Answer: The pIC50 was less than 4.00.

Question: What about the pIC50 [4] of the same molecule?
Answer: Its pIC50 is less than 4.00.

Question: What about the pIC50 [3] of the same molecule?
Answer: The pIC50 was less than 4.00.

Question: What about the pIC50 [5] of the same molecule?
Answer: The pIC50 was less than 4.00.
